Assay results as given in publication PMC4737078, “Cytochrome P450 CYP71BE5 in grapevine (Vitis vinifera) catalyzes the formation of the spicy aroma compound (−)-rotundone” (Journal of Experimental Botany, 2015).

Experiments:
[1] = target: T1, VvSTO4 (Vitis vinifera, UniProt A0A0S3QPU4); assay: GC-MS of reaction products, recombinant yeast microsomes; type: biochemical; conditions: 100 μM substrate, 1 mM NADPH, 50 mM Tris-HCl pH 7.5, 30 °C, 2 h; unidentified products presumed mono-hydroxylated sesquiterpenes
T1 construct: gene CYP71BE1
T1 sequence (A0A0S3QPU4 1-504): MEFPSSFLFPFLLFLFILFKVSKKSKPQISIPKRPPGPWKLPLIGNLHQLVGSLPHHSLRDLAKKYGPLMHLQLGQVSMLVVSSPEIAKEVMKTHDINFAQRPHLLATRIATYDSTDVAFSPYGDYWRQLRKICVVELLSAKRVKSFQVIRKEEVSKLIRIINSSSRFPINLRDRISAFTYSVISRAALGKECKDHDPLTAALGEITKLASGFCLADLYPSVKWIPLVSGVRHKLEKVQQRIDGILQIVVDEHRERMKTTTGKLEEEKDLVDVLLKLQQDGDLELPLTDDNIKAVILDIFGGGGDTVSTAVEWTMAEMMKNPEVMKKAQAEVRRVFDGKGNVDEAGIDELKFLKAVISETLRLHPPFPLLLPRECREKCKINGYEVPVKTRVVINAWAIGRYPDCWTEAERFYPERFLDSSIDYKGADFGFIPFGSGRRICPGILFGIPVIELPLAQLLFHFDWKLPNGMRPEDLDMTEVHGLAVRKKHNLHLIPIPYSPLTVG

[2] = target: T2, VvSTO6 (Vitis vinifera, UniProt A0A0S3QPS9); assay: as above; type: biochemical; conditions: 100 μM substrate, 1 mM NADPH, 50 mM Tris-HCl pH 7.5, 30 °C, 2 h; unidentified products presumed mono-hydroxylated sesquiterpenes
T2 construct: gene CYP71BE10
T2 sequence (A0A0S3QPS9 1-505): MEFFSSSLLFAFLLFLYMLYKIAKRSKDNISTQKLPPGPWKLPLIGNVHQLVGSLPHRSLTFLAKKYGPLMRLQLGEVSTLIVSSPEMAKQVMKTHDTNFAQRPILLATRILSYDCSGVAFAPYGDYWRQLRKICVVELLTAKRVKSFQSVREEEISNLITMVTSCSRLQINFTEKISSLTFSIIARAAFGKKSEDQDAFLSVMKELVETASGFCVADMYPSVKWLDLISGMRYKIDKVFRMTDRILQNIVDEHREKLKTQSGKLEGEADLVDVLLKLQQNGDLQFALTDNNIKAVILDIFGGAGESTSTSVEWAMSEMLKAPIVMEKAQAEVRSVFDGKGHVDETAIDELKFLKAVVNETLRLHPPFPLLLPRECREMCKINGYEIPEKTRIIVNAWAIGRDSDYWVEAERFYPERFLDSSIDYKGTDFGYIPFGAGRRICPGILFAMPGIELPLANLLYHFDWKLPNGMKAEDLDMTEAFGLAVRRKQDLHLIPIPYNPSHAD

[3] = substrate: C=C(C)[C@@H]1CC[C@H](C)C2=C(C1)[C@@H](C)CC2; assay: GC-MS (SBSE) of (−)-rotundone formation, Hanes-Woolf plot, recombinant yeast microsomes; type: biochemical, Vitis vinifera; conditions: 1 mM NADPH, 50 mM Tris-HCl pH 7.5, 30 °C, 30 min, 2.6–130 μM substrate
[4] = substrate: C=C(C)[C@@H]1CCC2=CCC[C@@H](C)[C@]2(C)C1; assay: cells, lysate or membranes; conditions: 1 mM NADPH, 50 mM Tris-HCl pH 7.5, 30 °C, 30 min, 2–100 μM substrate

| Molecule | GC-MS of reaction products, recombinant yeast microsomes [1] | GC-MS of reaction products, recombinant yeast microsomes [2] | Km [3] [µM] | Km [4] [µM] |
| --- | --- | --- | --- | --- |
| C=C(C)[C@@H]1CC[C@H](C)C2=C(C1)[C@@H](C)CC2 [α-guaiene] | VvSTO4 and VvSTO6 produced several reaction products with α-guaiene as a substrate | VvSTO4 and VvSTO6 produced several reaction products with α-guaiene as a substrate |  |  |
| VvSTO2 (Vitis vinifera) (protein) MELQFSFFPILCTFLLFIYLLKRLGKPSRTNHPAPKLPPGPWKLPIIGNMHQLVGSLPHRSLRSLAKKHGPLMHLQLGEVSAIVVSSREMAKEVMKTHDIIFSQRPCILAASIVSYDCTDIAFAPYGGYWRQIRKISVLELLSAKRVQSFRSVREEEVLNLVRSVSLQEGVLINLTKSIFSLTFSIISRTAFGKKCKDQEAFSVTLDKFADSAGGFTIADVFPSIKLLHVVSGMRRKLEKVHKKLDRILGNIINEHKARSAAKETCEAEVDDDLVDVLLKVQKQGDLEFPLTMDNIKAVLLDLFVAGTETSSTAVEWAMAEMLKNPRVMAKAQAEVRDIFSRKGNADETVVRELKFLKLVIKETLRLHPPVPLLIPRESRERCAINGYEIPVKTRVIINAWAIARDPKYWTDAESFNPERFLDSSIDYQGTNFEYIPFGAGRRMCPGILFGMANVELALAQLLYHFDWKLPNGARHEELDMTEGFRTSTKRKQDLYLIPITYRPLPVE |  |  | 30 | 35 |
